Experimental data taken from patent publication US20100222344A1, “4-ANILINO-SUBSTITUTED QUINAZOLINE DERIVATIVES AS TYROSINE KINASE INHIBITORS” (AstraZeneca AB, priority 2005, published 2010).

Tests used:
EGFR tyrosine kinase = molecular target: T1, EGFR tyrosine kinase (Homo sapiens, UniProt P00533); experiment: Test (a) protein tyrosine kinase phosphorylation assay, EGFR; type: biochemical; conditions: read-out: IC50 Test (a): Inhibition of EGFR tyrosine kinase protein phosphorylation
T1 construct: Recombinant intracellular fragments of EGFR, erbB2 and erbB4; made in house; host or cells: baculovirus/Sf21 insect cells (cleared lysate used)
Procedure: (§1) a) Protein Tyrosine Kinase phosphorylation Assays
(§2) This test measures the ability of a test compound to inhibit the phosphorylation of a tyrosine containing polypeptide substrate by EGFR, erbB2 and erbB4 tyrosine kinase enzyme.
(§3) Recombinant intracellular fragments of EGFR, erbB2 and erbB4 (accession numbers X00588, X03363 and L07868 respectively) were cloned and expressed in the baculovinis/Sf21 system. […]
(§4) Constitutive kinase activity of these recombinant proteins was determined by their ability to phosphorylate a synthetic peptide (made up of a random co-polymer of Glutamic Acid, Alanine and Tyrosine in the ratio of 6:3:1). […]
(§5) The immobilised phospho-peptide product of the reaction was detected by immunological methods. […] After further washing, HRP activity in each well of the plate was measured colorimetrically using 22′-Azino-di-[3-ethylbenzthiazoline sulfonate (6)]diammonium salt crystals (ABTS™ from Roche) as a substrate.
(§6) Quantification of colour development and thus enzyme activity was achieved by the measurement of absorbance at 405 nm on a Molecular Devices ThermoMax microplate reader. Kinase inhibition for a given compound was expressed as an IC50 value. […] The range of phosphorylation was calculated from the positive (vehicle plus ATP) and negative (vehicle minus ATP) control values.

erbB2 tyrosine kinase = molecular target: T2, erbB2 tyrosine kinase (Homo sapiens, UniProt P04626); experiment: Test (a) protein tyrosine kinase phosphorylation assay, erbB2; type: biochemical; conditions: read-out: IC50 Test (a): Inhibition of erbB2 tyrosine kinase protein phosphorylation
T2 construct: Recombinant intracellular fragments of EGFR, erbB2 and erbB4; made in house; host or cells: baculovirus/Sf21 insect cells (cleared lysate used)
Procedure: as §1, §2, §3, §4, §5, §6

BT474C cells = experiment: Test (e) BT474C cell proliferation assay; type: cell-based; conditions: Homo sapiens, 96 h, four-day MTS assay, read-out: IC50 Test (e): Inhibition of proliferation of BT474C cells
Excerpt: The BT-474 tumour cell line (human mammary carcinoma) was obtained from Dr Baselga (at Laboratorio Recerca Oncologica, Paseo Vall D'Hebron 119-129, Barcelona 08035, Spain). This cell line was subcloned and a certain population (hereinafter referred to as “BT474C”) was obtained.
e) BT474C Cell Proliferation Assay
BT474C cells are a sub-cloned population of in vivo competent cells, as discussed above.
The BT474C assay is a MTS (3-(4,5-dimethylthiazol-2-yl)-5-(3-carboxymethoxyphenyl)-2-(4-sulfophenyl)-2H-tetrazolium, inner salt—Promega G1111) endpoint-based cell proliferation assay, which measures the ability of a test compound to inhibit the proliferation of cells over a four-day period. […] Cell density is measured using a haemocytometer and viability is calculated using Trypan Blue solution before being further diluted in Assay Medium and seeded at a density of 1×10^4 cells per well (in 100 μl) into clear bottomed 96 well plates (Costar 3598). […] The plate is read at 490 nm on a spectrophotometer.
Assay plates are left at 37° C. for 4 days and then treated with MTS solution (as above), which is converted to a soluble formazan product by active cells. After incubating the plates for 2 hours the reaction is stopped by the addition of 10% SDS (Sodium dodecyl sulphate) and the plates are read at 490 nm on a spectrophotometer giving absorbance values relative to the concentration of converted dye. […]

T2 sequence (P04626 676-1255 limits assumed): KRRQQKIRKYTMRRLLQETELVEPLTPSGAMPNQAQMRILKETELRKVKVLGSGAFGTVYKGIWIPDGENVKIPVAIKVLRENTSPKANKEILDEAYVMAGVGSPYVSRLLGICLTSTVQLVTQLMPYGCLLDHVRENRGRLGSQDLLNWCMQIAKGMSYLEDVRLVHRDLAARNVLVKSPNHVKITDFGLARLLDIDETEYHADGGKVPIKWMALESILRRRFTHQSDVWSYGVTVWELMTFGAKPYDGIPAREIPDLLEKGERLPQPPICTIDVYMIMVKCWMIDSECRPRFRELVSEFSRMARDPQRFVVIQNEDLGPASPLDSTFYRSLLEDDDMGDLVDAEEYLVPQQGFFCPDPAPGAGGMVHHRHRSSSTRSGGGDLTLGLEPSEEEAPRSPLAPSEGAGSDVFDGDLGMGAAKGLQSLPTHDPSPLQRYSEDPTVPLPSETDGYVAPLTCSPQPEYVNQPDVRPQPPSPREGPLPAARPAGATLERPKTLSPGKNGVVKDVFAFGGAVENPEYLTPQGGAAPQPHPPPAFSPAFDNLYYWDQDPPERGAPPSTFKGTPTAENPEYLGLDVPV
T1 sequence (P00533 669-1210 limits assumed): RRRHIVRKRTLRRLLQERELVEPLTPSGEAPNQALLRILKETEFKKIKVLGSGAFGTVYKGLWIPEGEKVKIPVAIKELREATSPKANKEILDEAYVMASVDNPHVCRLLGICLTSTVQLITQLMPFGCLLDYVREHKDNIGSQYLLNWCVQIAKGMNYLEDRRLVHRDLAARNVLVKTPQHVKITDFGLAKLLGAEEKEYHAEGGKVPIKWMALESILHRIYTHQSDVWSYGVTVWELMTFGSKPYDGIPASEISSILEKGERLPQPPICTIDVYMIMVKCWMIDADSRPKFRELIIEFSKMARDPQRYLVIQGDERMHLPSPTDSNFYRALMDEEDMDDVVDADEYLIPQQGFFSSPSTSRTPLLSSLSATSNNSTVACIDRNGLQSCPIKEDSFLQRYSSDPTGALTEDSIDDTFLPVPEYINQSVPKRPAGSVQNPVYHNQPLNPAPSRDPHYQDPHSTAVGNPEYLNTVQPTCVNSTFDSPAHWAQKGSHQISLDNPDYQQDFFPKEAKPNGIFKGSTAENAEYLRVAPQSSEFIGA

Row | SMILES | IC50 (EGFR tyrosine kinase) | IC50 (erbB2 tyrosine kinase) | IC50 (BT474C cells)
1 | C[C@@H](Oc1cccc2ncnc(Nc3ccc(OCC4CCCO4)c(Cl)c3)c12)C(=O)N1CCOCC1 (stereo partly drawn) [Example 2, N-[3-chloro-4-(tetrahydrofuran-2-ylmethoxy)phenyl]-5-[(1R)-1-methyl-2-morpholin-4-yl-2-oxoethoxy]quinazolin-4-amine] | 362 nM | 8 nM | 337 nM
2 | CSCCCOc1ccc(Nc2ncnc3cccc(O[C@H](C)C(=O)N4CCOCC4)c23)cc1Cl [Example 3, N-{3-chloro-4-[3-(methylthio)propoxy]phenyl}-5-[(1R)-1-methyl-2-morpholin-4-yl-2-oxoethoxy]quinazolin-4-amine] | 169 nM | 3 nM | 418 nM
